According to the supplement of paper PMC10307832:

Legend:
Experiment in all cases: relative viability (nuclei count vs DMSO), 5 days (fraction); higher = more cells survive
[1] = compound: C1COCCN1C2=NC(=NC3=C2OC4=C3C=CC=N4)C5=CC(=CC=C5)NC(=O)C6=CN=C(C=C6)N
Procedure, shortened: (§1)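 Hoechst staining, done together with fixation and permeabilisation, marked nuclei for 4× imaging and MetaXpress counting. This followed 5 days without medium change after lung cancer cell lines, kept overnight at 37 °C in 1536-well plates, were pinned with five library-drug doses (not always all listed) spaced by √10 on vehicle-anchored plates. Viability is the ratio of treated-well to vehicle-well nuclei, expressed as a median across plates. Plates passed only at control CV below 25% with at least one doubling.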

SGI-1776 = compound: CN1CCC(CNc2ccc3ncc(-c4cccc(OC(F)(F)F)c4)n3n2)CC1 [SGI-1776]
Procedure, shortened: as §1

Entinostat = compound: Nc1ccccc1NC(=O)c1ccc(CNC(=O)OCc2cccnc2)cc1 [Entinostat]
Procedure, shortened: as §1

SGI-1776 + Crizotinib = compound: CN1CCC(CNc2ccc3ncc(-c4cccc(OC(F)(F)F)c4)n3n2)CC1 [SGI-1776] + C[C@@H](Oc1cc(-c2cnn(C3CCNCC3)c2)cnc1N)c1c(Cl)ccc(F)c1Cl [Crizotinib] (partner 1 µM)
Procedure, shortened: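 Nuclei were stained with Hoechst during a one-step fixation (final 0.05% Triton X-100, 1% formaldehyde, 1 ug/ml Hoechst) carried out 5 days after dosing, then counted on 4× images. The cells, lung cancer lines in 1536-well plates, had been dosed by pin tool the day after seeding with one drug alone or a fixed anchor-drug dose plus five library-drug doses (not always all listed) in √10 steps. Relative viability is the nuclei count in treated wells divided by that in vehicle wells, and each value is the median of duplicate plates.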

Row | Cell Line | relative viability ([1]; 0.02 µM) | relative viability ([1]; 0.06325 µM) | relative viability ([1]; 0.2 µM) | relative viability ([1]; 0.6325 µM) | relative viability ([1]; 2 µM) | relative viability (SGI-1776; 0.08 µM) | relative viability (SGI-1776; 0.8 µM) | relative viability (SGI-1776; 2.53 µM) | relative viability (SGI-1776; 8 µM) | relative viability (Entinostat; 0.02 µM) | relative viability (Entinostat; 0.06325 µM) | relative viability (Entinostat; 0.2 µM) | relative viability (Entinostat; 0.6325 µM) | relative viability (Entinostat; 2 µM) | relative viability (SGI-1776 + Crizotinib; first compound 0.08 µM) | relative viability (SGI-1776 + Crizotinib; first compound 0.8 µM) | relative viability (SGI-1776 + Crizotinib; first compound 2.53 µM) | relative viability (SGI-1776 + Crizotinib; first compound 8 µM)
1 | HCC-78 | 0.935 | 1.06 | 0.966 | 0.892 | 0.832 | 1.09 | 1.04 | 0.975 | 0.866 | 0.991 | 1.09 | 0.65 | 0.467 | 0.343 | 0.352 | 0.311 | 0.346 | 0.318
2 | HCC-366 | 1.03 | 1.07 | 1.05 | 1.04 | 0.738 | 0.957 | 1.02 | 0.989 | 1.02 | 1.03 | 1.09 | 0.943 | 0.515 | 0.154 | 0.549 | 0.557 | 0.393 | 0.098
3 | HCC-827 | 1.03 | 1.07 | 1.07 | 1.1 | 0.941 | 1.08 | 1.09 | 1.13 | 0.968 | 1.01 | 0.986 | 0.954 | 0.657 | 0.535 | 0.956 | 0.975 | 0.985 | 0.915
4 | HOP-62 | 0.974 | 1.15 | 1.09 | 0.961 | 0.762 | 1.09 | 0.956 | 1.05 | 0.998 | 1.05 | 0.974 | 0.97 | 0.633 | 0.356 | 0.998 | 0.854 | 0.839 | 0.969
5 | IA-LM | 0.895 | 0.924 | 0.716 | 0.847 | 0.442 | 0.999 | 1.02 | 0.97 | 0.87 | 0.975 | 1.01 | 1.08 | 0.887 | 0.651 | 0.514 | 0.989 | – | 0.69
6 | LC-2-ad | 0.965 | 1.06 | 0.937 | 0.932 | 0.788 | 0.984 | 1.05 | 1.09 | 0.815 | 1.02 | 0.972 | 0.942 | 0.48 | 0.315 | 0.53 | 0.47 | 0.414 | 0.36
7 | LCLC-97TM1 | 1.03 | 0.99 | 0.994 | 1.1 | 0.905 | 1.01 | 1.03 | 1.11 | 1.01 | 1.1 | 1.11 | 1.02 | 0.732 | 0.702 | 0.383 | 0.384 | 0.342 | 0.198
8 | LCLC-103H | 0.913 | 1.06 | 1.07 | 0.978 | 0.815 | 1.02 | 0.998 | 0.964 | 0.924 | 1.03 | 1.06 | 0.942 | 0.721 | 0.454 | 1.03 | 1.04 | 1.03 | 0.958
9 | LK-2 | 0.998 | 1.08 | 1.09 | 0.757 | 0.585 | 1.09 | 1.03 | 1.03 | 0.77 | 1.04 | 1.03 | 0.868 | 0.652 | 0.349 | 0.228 | 0.228 | 0.258 | 0.25
10 | LOU-NH91 | 0.955 | 1.01 | 0.948 | 0.925 | 0.897 | 1.02 | 1.03 | 0.969 | 0.713 | 1.05 | 1.11 | 1 | 0.897 | 0.739 | 0.776 | 0.747 | 0.693 | 0.593
11 | LU99A | 0.966 | 0.956 | 0.859 | 0.777 | 0.564 | 0.948 | 1.03 | 0.964 | 0.861 | 0.918 | 0.93 | 0.871 | 0.69 | 0.603 | 0.621 | 0.529 | 0.549 | 0.288
12 | LXF-289 | 1.06 | 1.03 | 1.07 | 0.995 | 0.8 | 1.01 | 1.05 | 1.05 | 0.959 | 1 | 0.978 | 0.952 | 0.711 | 0.63 | 0.803 | 0.805 | 0.813 | 0.786
13 | NCI-H522 | 0.945 | 0.927 | 0.888 | 0.988 | 0.955 | 1.04 | 1.01 | 0.875 | 0.827 | 1.03 | 0.967 | 1.19 | 1.11 | 0.646 | – | – | – | –
14 | NCI-H1395 | 0.846 | 0.935 | 0.724 | 0.801 | 0.821 | 1.04 | 1.04 | 0.827 | 0.621 | 1.1 | 1.15 | 0.962 | 0.745 | 0.601 | – | – | – | –
15 | NCI-H1623 | 1.07 | 0.943 | 0.895 | 0.924 | 0.853 | 0.977 | 0.967 | 0.951 | 0.897 | 1 | 0.937 | 0.918 | 0.625 | 0.462 | – | – | – | –
16 | NCI-H1648 | 0.93 | 0.788 | 0.853 | 0.538 | 0.794 | 1 | 0.884 | 0.844 | 0.767 | 1.09 | 1 | 0.823 | 0.639 | 0.526 | – | – | – | –
17 | NCI-H1793 | 0.822 | 1.01 | 0.793 | 0.876 | 0.644 | 0.815 | 1.31 | 0.931 | 0.783 | 1.03 | 1.03 | 0.966 | 0.488 | 0.405 | – | – | – | –
18 | NCI-H2342 | 1 | 1.1 | 0.938 | 0.928 | 0.827 | 1.1 | 0.927 | 0.914 | 1.07 | 1.07 | 1.08 | 0.907 | 0.908 | 0.73 | – | – | – | –
19 | SW 900 | 0.759 | 1.01 | 0.87 | 0.784 | 0.76 | 0.891 | 1.01 | 0.746 | 0.526 | 0.92 | 0.944 | 0.92 | 0.748 | 0.519 | – | – | – | –
